Series [1] is described as follows: Evaluation test of elution in phosphate-buffered saline (pH 7.4), elution rate of compound 1 by UPLC-MS. In kind it is physicochemical. To be noted: phosphate-buffered saline pH 7.4, 37°C, shaking 60 strokes/min. As for the experimental part:
(§1) Quantitative determination of the concentration of the compound 1 in the following Test Examples and Reference Examples was performed using ultra-high performance liquid chromatography with a single quadrupole mass spectrometer as a detector.
An evaluation test of the elution of the fine particle a prepared in Reference Example 1-1 was performed in the same manner as in Test Example 1 mentioned later. Specifically, the fine particle a (10 mg) was added to phosphate-buffered saline (pH 7.4, 30 mL), and using a shaker, the mixture was horizontally shaken at 37° C. for 24 hours at a shaking speed of 60 strokes/min and with a shaking width of 2.0 cm/stroke to evaluate “elution”. Quantitative determination of the concentration of the compound 1 was performed using ultra-high performance liquid chromatography with a single quadrupole mass spectrometer as a detector to calculate an elution rate. The test results of the fine particle a are shown in Table 1 below together with the test results of the compound 1 bulk powder obtained in Test Example 1 mentioned later.
Using the fine particles A, B, C, D and E prepared in Test Example 1-1 and the compound 1 bulk powder, an evaluation test of each elution was performed. Each of the fine particles A, B, C, D and E and the compound 1 bulk powder (10 mg) was added to phosphate-buffered saline (pH 7.4, 30 mL), and using a shaker, the mixtures were horizontally shaken at 37° C. for 24 hours at a shaking speed of 60 strokes/min and with a shaking width of 2.0 cm/stroke to evaluate “elution”. Quantitative determination of the concentration of the compound 1 was performed using ultra-high performance liquid chromatography with a single quadrupole mass spectrometer as a detector to calculate an elution rate.
Using the fine particle F prepared in Test Example 2-1 and the compound 1 bulk powder, an evaluation test of each elution was performed in the same manner as in Test Example 1. Each of the fine particle F and the compound 1 bulk powder (10 mg) was added to phosphate-buffered saline (pH 7.4, 30 mL), and using a shaker, the mixtures were horizontally shaken at 37° C. for 72 hours at a shaking speed of 60 strokes/min and with a shaking width of 2.0 cm/stroke to evaluate “elution”.

Series [2] can be described thus: Pharmacokinetic evaluation: concentration of compound 1 in plasma after single administration to SD male rats. It is filed as in vivo. Conditions: for BA / AUC(0-inf) / Cmax / Tmax / half-life: 5 mg/kg as compound 1, single, SD male rats; for AUC(0-inf) / Cmax / Tmax / half-life: rat, plasma. How it is done:
as §1
To evaluate the sustained-release ability of fine particle B, the concentration of the compound 1 in blood was measured over time after subcutaneous administration of the fine particle B or the compound 1 bulk powder to rats or after oral administration of the compound 1 bulk powder to rats. The fine particle B was suspended in physiological saline and the compound 1 bulk powder was dissolved in physiological saline, and then 5 mg/kg each as an amount of the compound 1 was singly administered to SD male rats. After administration, blood was collected over time from the tail vein, and the blood was transferred into a micro test tube treated with heparin, and immediately cooled in ice. After cooling in ice, the blood was immediately centrifuged at 4° C. and 10,000 g for 10 minutes. The concentration of the compound 1 in plasma thus obtained was quantitatively determined using ultra-high performance liquid chromatography with a single quadrupole mass spectrometer as a detector.
Cmax, Tmax, T1/2, AUC0-∞ and BA represent maximum blood concentration (concentration at the peak of blood concentration curve), time to reach maximum blood concentration (time to reach the peak of blood concentration curve), half-life of the concentration of drug in blood, area under curve from initiation of administration to drug elimination and bioavailability, respectively.
To evaluate the sustained-release ability of fine particle F, the concentration of the compound 1 in blood was measured over time after subcutaneous administration of the fine particle F prepared in Test Example 2-1 or the compound 1 bulk powder to rats. The method was same as in Test Example 1-3. Specifically, the fine particle F was suspended in physiological saline and the compound 1 bulk powder was dissolved in physiological saline, and then 5 mg/kg each as an amount of the compound 1 was singly subcutaneously administered to SD male rats. After subcutaneous administration, blood was collected over time from the tail vein, and the blood was transferred into a micro test tube treated with heparin, and immediately cooled in ice. After cooling in ice, the blood was immediately centrifuged at 4° C. and 10,000 g for 10 minutes. The concentration of the compound 1 in plasma thus obtained was quantitatively determined using ultra-high performance liquid chromatography with a single quadrupole mass spectrometer as a detector.
To evaluate the sustained-release ability of the hydrogel a prepared in Reference Example 3-1, the concentration of the compound 1 in blood was measured over time after subcutaneous administration of the hydrogel a or the compound 1 bulk powder to rats. Specifically, the hydrogel a or the compound 1 bulk powder at a dose of 5 mg/kg as an amount of the compound 1 was singly subcutaneously administered to SD male rats. After subcutaneous administration, blood was collected over time from the tail vein, and the blood was transferred into a micro test tube treated with heparin, and immediately cooled in ice. After cooling in ice, the blood was immediately centrifuged at 4° C. and 10,000 g for 10 minutes. The concentration of the compound 1 in plasma thus obtained was quantitatively determined using ultra-high performance liquid chromatography with a single quadrupole mass spectrometer as a detector. […]

Setting [3] is: sc, subcutaneous administration.
[4] abbreviates: subcutaneous administration, 5 mg/kg as compound 1, SD male rats.

Counter-ions that a name gives are not always drawn.

`CCS(=O)(=O)Nc1ncc(C(F)(F)F)cc1NC(=O)C1CCCCC1` [Compound 1 bulk powder, N-(2-ethylsulfonylamino-5-trifluoromethyl-3-pyridyl)cyclohexanecarboxamide-monosodium salt-monohydrate]: the Elution rate was determined as 0% in series [1] (Time 0 h); 83.73 ± 4.31% in series [1] (Time 0.5 h); 93.59 ± 1.63% in series [1] (Time 1 h); 94.77 ± 2.26% in series [1] (Time 3 h); 92.00 ± 2.45% in series [1] (Time 6 h); 91.63 ± 1.84% in series [1] (Time 12 h). In addition, the Elution rate came to 97.10 ± 1.96% in series [1] (Time 24 h), 91.10 ± 3.80% in series [1] (Time 48 h) and 93.29 ± 1.36% in series [1] (Time 72 h). Further, the figures for the BA in series [2] (oral administration) and in series [2] (subcutaneous administration) were 41% and 67%, respectively. The AUC(0-inf) (commonly the area under the concentration-time curve extrapolated to infinity) in series [2] (setting [3]) came out at 8550 ± 600 ng·h/mL; in series [2] (oral administration), 5160 ± 200 ng·h/mL. Also, the Cmax – broadly, the highest concentration seen after dosing – was 9600 ± 700 ng/mL in series [2] (setting [3]) and 3100 ± 500 ng/mL in series [2] (oral administration). Further, the Tmax in series [2] (setting [3]) and in series [2] (oral administration) was 15 min throughout. Further, the half-life (as a rule, the time in which the quantity being followed falls by half) in series [2] (setting [3]) is 21.6 min; in series [2] (oral administration), 68.4 ± 12 min. For the same compound, in series [2] (setting [4]), the “Concentration of compound 1 in plasma at 12 hours after administration” value is listed as “below the detection limit”. The “Concentration of compound 1 in plasma at 24 hours after administration” value in series [2] (setting [4]) is given as “below the detection limit”.
